Patent US9125388B2, “Biological control” (Isis Innovation Limited, priority 1999, dated 2015)

Test system: Yp3 tTa, tRe Ras64B^V12 on the 2nd chromosome
Experiment: Recombinant chromosome experiments / maternal transmission of Tc (Table 1): parents raised on supplement, progeny on normal food, adults by sex
Assay type: in vivo, Drosophila melanogaster
Settings: for ♀ progeny emerging as adults / ♂ progeny emerging as adults: 25° C.
Protocol: 40-45 young females and 20-25 young males raised at 25° C. upon food with the indicated tetracycline supplement were allowed to mate, then transferred to normal (tetracycline-free) food after 3-4 days. These flies were transferred to fresh vials of normal food every day for 12 days, then removed on the 13th day. All the vials were incubated at 25° C. while the progeny developed. The numbers of male and female progeny emerging as adults in each vial were recorded.
A standard range of additive concentrations were used in the following experiments (0.05-20 μg/ml). […] (=“not done”)
All the preceding experiments were performed at 25° C., the standard temperature for Drosophila culture. However, the insects in the wild would clearly be exposed to varying temperatures, so we investigated the extent to which the efficiency of the system is affected by temperature. As with the recombinant chromosome experiments, 40-45 young virgin females and 20-25 young males raised at 25° C. upon food with the indicated tetracycline supplement were allowed to mate, then transferred to normal (tetracycline-free) food after 3-4 days. These flies were transferred to fresh vials of normal food every day. The numbers of male and female progeny emerging as adults in each vial were recorded. These experiments were performed at either 18° C. or 29° C.
We used a strain of Drosophila in which females, but not males, require Tc for viability.
A strain homozygous for second chromosome insertions of both Yp3-tTA and tRe-Ras64B^V12 was tested for the effect of parental dietary Tc. 40-45 young females and 20-25 young males raised at 25° C. upon food with the indicated tetracycline supplement were allowed to mate, then transferred to normal (tetracycline-free) food after 3-4 days. These flies were transferred to fresh vials of normal food every day for 12 days, and then removed on the 13th day. All the vials were incubated at 25° C. while the progeny developed. The total numbers of male and female progeny emerging as adults were recorded.

[1] = parents raised on Tc 100 μg/ml, Day 4 on normal food
[2] = parents raised on Tc 100 μg/ml, Day 5 on normal food
[3] = parents raised on Tc 100 μg/ml, Day 6 on normal food
[4] = parents raised on Tc 100 μg/ml, Day 7 on normal food
[5] = parents raised on Tc 500 μg/ml, Day 1 on normal food
[6] = parents raised on Tc 500 μg/ml, Day 2 on normal food
[7] = parents raised on Tc 500 μg/ml, Day 3 on normal food
[8] = parents raised on Tc 500 μg/ml, Day 4 on normal food
[9] = parents raised on Tc 500 μg/ml, Day 5 on normal food
[10] = parents raised on Tc 500 μg/ml, Day 6 on normal food
[11] = parents raised on Tc 500 μg/ml, Day 7 on normal food
[12] = parents raised on Tc 1000 μg/ml, Day 1 on normal food
[13] = parents raised on Tc 1000 μg/ml, Day 2 on normal food
[14] = parents raised on Tc 1000 μg/ml, Day 3 on normal food
[15] = parents raised on Tc 1000 μg/ml, Day 4 on normal food
[16] = parents raised on Tc 1000 μg/ml, Day 5 on normal food
[17] = parents raised on Tc 1000 μg/ml, Day 6 on normal food
[18] = parents raised on Tc 1000 μg/ml, Day 7 on normal food
[19] = parents raised on Tc 2000 μg/ml, Day 1 on normal food
[20] = parents raised on Tc 2000 μg/ml, Day 2 on normal food
[21] = parents raised on Tc 2000 μg/ml, Day 3 on normal food
[22] = parents raised on Tc 2000 μg/ml, Day 4 on normal food
[23] = parents raised on Tc 2000 μg/ml, Day 5 on normal food
[24] = parents raised on Tc 2000 μg/ml, Day 6 on normal food
[25] = parents raised on Tc 2000 μg/ml, Day 7 on normal food
[26] = parents raised on tetracycline 0.1 μg/ml, 18° C.
[27] = parents raised on tetracycline 0.1 μg/ml, 29° C.
[28] = parents raised on tetracycline 1 μg/ml, 18° C.
[29] = parents raised on tetracycline 1 μg/ml, 29° C.
[30] = parents raised on tetracycline 5 μg/ml, 18° C.
[31] = parents raised on tetracycline 5 μg/ml, 29° C.

CN(C)[C@@H]1C(O)=C(C(N)=O)C(=O)[C@@]2(O)C(O)=C3C(=O)c4c(O)cccc4[C@@](C)(O)[C@H]3C[C@@H]12 [Tetracycline, tetracycline]
♀ progeny emerging as adults [1]: 0 | ♂ progeny emerging as adults [1]: 127 | ♀ progeny emerging as adults [2]: 0 | ♂ progeny emerging as adults [2]: 135 | ♀ progeny emerging as adults [3]: 0 | ♂ progeny emerging as adults [3]: 144 | ♀ progeny emerging as adults [4]: 0 | ♂ progeny emerging as adults [4]: 107 | ♀ progeny emerging as adults [5]: 2 | ♂ progeny emerging as adults [5]: 136 | ♀ progeny emerging as adults [6]: 0 | ♂ progeny emerging as adults [6]: 88 | ♀ progeny emerging as adults [7]: 0 | ♂ progeny emerging as adults [7]: 113 | ♀ progeny emerging as adults [8]: 0 | ♂ progeny emerging as adults [8]: 113 | ♀ progeny emerging as adults [9]: 0 | ♂ progeny emerging as adults [9]: 87 | ♀ progeny emerging as adults [10]: 0 | ♂ progeny emerging as adults [10]: 94 | ♀ progeny emerging as adults [11]: 0 | ♂ progeny emerging as adults [11]: 109 | ♀ progeny emerging as adults [12]: 13 | ♂ progeny emerging as adults [12]: 107 | ♀ progeny emerging as adults [13]: 5 | ♂ progeny emerging as adults [13]: 140 | ♀ progeny emerging as adults [14]: 0 | ♂ progeny emerging as adults [14]: 110 | ♀ progeny emerging as adults [15]: 0 | ♂ progeny emerging as adults [15]: 141 | ♀ progeny emerging as adults [16]: 0 | ♂ progeny emerging as adults [16]: 98 | ♀ progeny emerging as adults [17]: 0 | ♂ progeny emerging as adults [17]: 129 | ♀ progeny emerging as adults [18]: 0 | ♂ progeny emerging as adults [18]: 88 | ♀ progeny emerging as adults [19]: 32 | ♂ progeny emerging as adults [19]: 119 | ♀ progeny emerging as adults [20]: 15 | ♂ progeny emerging as adults [20]: 102 | ♀ progeny emerging as adults [21]: 12 | ♂ progeny emerging as adults [21]: 107 | ♀ progeny emerging as adults [22]: 9 | ♂ progeny emerging as adults [22]: 109 | ♀ progeny emerging as adults [23]: 8 | ♂ progeny emerging as adults [23]: 109 | ♀ progeny emerging as adults [24]: 2 | ♂ progeny emerging as adults [24]: 140 | ♀ progeny emerging as adults [25]: 0 | ♂ progeny emerging as adults [25]: 127 | Female progeny emerging as adults [26]: 2 | Male progeny emerging as adults [26]: 1190 | Female progeny emerging as adults [27]: 0 | Male progeny emerging as adults [27]: 718 | Female progeny emerging as adults [28]: 4 | Male progeny emerging as adults [28]: 1213 | Female progeny emerging as adults [29]: 0 | Male progeny emerging as adults [29]: 753 | Female progeny emerging as adults [30]: 0 | Male progeny emerging as adults [30]: 1058 | Female progeny emerging as adults [31]: 0 | Male progeny emerging as adults [31]: 757 | parental food concentration leading to survival of a small proportion of female progeny (progeny on media lacking Tc): ≥ 500 µg/mL | food concentration sufficient to suppress expression of the toxic gene, allowing both males and females to survive (strain grown on supplemented food): 0.1 µg/mL
